In test [1] the target is Human Norepinephrine Transporter (NET (h)) (Homo sapiens (Human), UniProt P23975). Put plainly: Radioligand binding assay, human norepinephrine transporter ([3H]nisoxetine). The note with it: for inhibition at 10 µM: 2 h, single concentration 1.0 E-5 M, duplicate, mean values; for IC50: dose-response curves. On the procedure: (The measurement was performed as described in Pacholczyk, T., Blakely, R. D. and Amara, S. G. (1991), Expression cloning of a cocaine- and antidepressant-sensitive human noradrenaline transporter, Nature, 350: 350)
Chain of Human Norepinephrine Transporter (NET (h)) (P23975 whole entry): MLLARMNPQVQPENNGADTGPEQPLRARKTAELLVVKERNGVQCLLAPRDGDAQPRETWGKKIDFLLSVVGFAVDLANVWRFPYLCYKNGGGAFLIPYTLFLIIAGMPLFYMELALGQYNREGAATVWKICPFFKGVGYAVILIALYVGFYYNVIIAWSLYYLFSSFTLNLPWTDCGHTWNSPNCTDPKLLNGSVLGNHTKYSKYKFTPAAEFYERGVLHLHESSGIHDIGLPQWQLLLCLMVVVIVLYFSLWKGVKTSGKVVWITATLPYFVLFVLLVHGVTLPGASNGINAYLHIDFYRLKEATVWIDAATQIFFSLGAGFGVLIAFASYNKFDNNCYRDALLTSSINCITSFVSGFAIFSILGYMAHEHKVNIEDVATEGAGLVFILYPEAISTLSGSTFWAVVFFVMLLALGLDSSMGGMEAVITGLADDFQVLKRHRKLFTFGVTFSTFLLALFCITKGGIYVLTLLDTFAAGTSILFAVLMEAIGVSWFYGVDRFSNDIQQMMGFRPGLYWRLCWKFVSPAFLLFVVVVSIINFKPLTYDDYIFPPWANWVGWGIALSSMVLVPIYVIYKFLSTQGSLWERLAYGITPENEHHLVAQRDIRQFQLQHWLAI
Cell membrane homogenates (20 μg protein) are incubated for 120 min at 4° C. with 1 nM [3H]nisoxetine in the absence or presence of the test compound in a buffer containing 50 mM Tris-HCl (pH 7.4), 120 mM NaCl and 5 mM KCl. Nonspecific binding is determined in the presence of 1 μM desipramine. Following incubation, the samples are filtered rapidly under vacuum through glass fiber filters (GF/B, Packard) presoaked with 0.3% PEI and rinsed several times with ice-cold 50 mM Tris-HCl using a 96-sample cell harvester (Unifilter, Packard). The filters are dried then counted for radioactivity in a scintillation counter (Topcount, Packard) using a scintillation cocktail (Microscint 0, Packard).
(§1) The results are expressed as a percent inhibition of the control radioligand specific binding.
(§2) […] Reported values are mean values.

In a further test the test system is DOPAC. Kind of test: In vivo neurochemistry: tissue levels of DOPAC in brain regions. Set-up: species or system rats. The note with it: 100 μmol/kg s.c., 65 min before sacrifice, control saline, n=5. The text has this: The change in turnover of dopamine in the terminal areas of the ascending dopaminergic projections of the mammalian brain can be illustrated by measuring of changes in biochemical indices in the brain e.g. changes in concentrations of dopamine metabolites such as 3,4-dihydroxyphenyl-acetic acid (DOPAC) in the striatum and frontal cortex.
The measurement of the tissue content of DOPAC is well established in the field of research since the 1960's. In short, male Sprague-Dawley rats are administered the test compound 60 minutes prior to decapitation. The brain is rapidly taken out and dissected. The striatum is rapidly frozen and subsequently quantitatively analyzed with respect to its content of DOPAC by means of HPLC and electrochemical detection. The number of animals used for each test compound/vehicle is 5/group.
After the behavioural activity sessions, the rats were decapitated and their brains rapidly taken out and put on an ice-cold petri-dish. The brains were dissected into a right and a left part of which the right part was analyzed for neurochemicals with HPLC and the left part was analyzed for gene expression. The limbic forebrain, the striatum, the frontal cortex, the hippocampus and the remaining hemispheral parts of each rat were dissected and frozen. Each brain part was subsequently analyzed with respect to its content of monoamines and their metabolites.
The monoamine transmitter substances (NA (noradrenaline), DA (dopamine), 5-HT (serotonin)) as well as one corresponding acid, (DOPAC (3,4-dihydroxyphenylacetic acid), were quantified in brain tissue homogenates by HPLC separations and electrochemical detection.
The analytical method is based on two chromatographic separations dedicated for amines or acids. Two chromatographic systems share a common auto injector with a 10-port valve and two sample loops for simultaneous injection on the two systems. Both systems are equipped with a reverse phase column (Luna C18 (2), dp 3 μm, 50*2 mm i.d., Phenomenex) and electrochemical detection is accomplished at two potentials on glassy carbon electrodes (MF-1000, Bioanalytical Systems, Inc.). The column effluent is passed via a T-connection to the detection cell or to a waste outlet. This is accomplished by two solenoid valves, which block either the waste or detector outlet. By preventing the chromatographic front from reaching the detector, better detection conditions are achieved. The aqueous mobile phase (0.4 ml/min) for the acid system contains citric acid 14 mM, sodium citrate 10 mM, Methanol 15% (v/v) and EDTA 0.1 mM. Detection potentials relative to Ag/AgCl reference are 0.45 and 0.60V. […] Detection potentials relative to Ag/AgCl reference are 0.45 and 0.65V.
Each compound or saline solution (control) indicated in the above table was administered subcutaneously (s.c.) 65 min before sacrificing the animals. DOPAC results are presented as percent of control means±SEM (standard error of the mean). Statistical significance was assessed using Student's t-test (2 tailed) vs controls. * denotes p<0.05, ** p<0.01, *** p<0.001, n=5.

The target in test [2] is Human Dopamine Transporter (DAT (h)) (Homo sapiens (Human), UniProt Q01959). Kind of test: Radioligand binding assay, human dopamine transporter ([3H]BTCP). The note with it: for inhibition at 10 µM: 2 h, single concentration 1.0 E-5 M, duplicate, mean values; for IC50: dose-response curves. On the procedure: (The measurement was performed as described in Pristuba, Z. B., Wilson, J. M., Hoffman, B. J., Kish, S. J. and Nisnik, H. B. (1994), Pharmacological heterogeneity of the cloned and native human dopamine transporter: disassociation of [3H]WIN 35,428 and [3H]GBR 12,935 binding, Mol. Pharmacol., 45: 125)
Chain of Human Dopamine Transporter (DAT (h)) (Q01959 whole entry): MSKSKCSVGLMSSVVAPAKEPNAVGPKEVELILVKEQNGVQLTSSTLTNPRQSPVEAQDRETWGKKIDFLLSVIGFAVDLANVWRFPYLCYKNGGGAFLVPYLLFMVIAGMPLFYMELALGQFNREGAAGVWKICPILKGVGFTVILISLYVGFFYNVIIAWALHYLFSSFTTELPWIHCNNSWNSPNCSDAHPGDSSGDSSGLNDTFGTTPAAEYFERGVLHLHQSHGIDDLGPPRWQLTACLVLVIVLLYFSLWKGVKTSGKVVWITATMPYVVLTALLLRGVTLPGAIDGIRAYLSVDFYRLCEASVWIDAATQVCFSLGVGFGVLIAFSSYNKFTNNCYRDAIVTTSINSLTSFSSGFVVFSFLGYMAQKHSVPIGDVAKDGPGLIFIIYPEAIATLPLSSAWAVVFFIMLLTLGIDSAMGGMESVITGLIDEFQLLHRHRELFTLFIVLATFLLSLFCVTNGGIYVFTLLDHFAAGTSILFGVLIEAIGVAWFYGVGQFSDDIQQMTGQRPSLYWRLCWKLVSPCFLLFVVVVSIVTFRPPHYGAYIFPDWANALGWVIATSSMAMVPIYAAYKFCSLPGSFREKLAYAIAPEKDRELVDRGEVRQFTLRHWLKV
Cell membrane homogenates (20 μg protein) are incubated for 120 min at 4° C. with 4 nM
[3H]BTCP in the absence or presence of the test compound in a buffer containing 50 mM Tris-HCl (pH 7.4) and 100 mM NaCl. Nonspecific binding is determined in the presence of 10 μM BTCP. Following incubation, the samples are filtered rapidly under vacuum through glass fiber filters (GF/B, Packard) presoaked with 0.3% PEI and rinsed several times with ice-cold 50 mM Tris-HCl using a 96-sample cell harvester (Unifilter, Packard). The filters are dried then counted for radioactivity in a scintillation counter (Topcount, Packard) using a scintillation cocktail (Microscint 0, Packard).
as §1, §2

Where [3] appears, read: ratio of IC50 values of Table 6.

Structures can show the parent of a compound that is named as a salt. Marks after values point to notes of the source that are not given here.

One may read the inhibition as the share of the control response that was lost under treatment. The IC50 is the concentration that gives 50% inhibition.

`Fc1cc(F)c(F)c(OC2CNC2)c1F` [Example 3, 3-(2,3,5,6-tetrafluorophenoxy)-azetidine hydrochloric acid salt]: in test [1], the inhibition at 10 µM is 25%. For the same compound, in the test with DOPAC, the “DOPAC cortex ± SEM” value is 201 ± 11*** % of control means and the “DOPAC striatum ± SEM” value is 158 ± 3.4*** % of control means. The compound further showed an inhibition at 10 µM in test [2] of 10%.

Regarding `CCN1CC(Oc2c(F)c(F)cc(F)c2F)C1` [Example 39, 1-ethyl-3-(2,3,5,6-tetrafluorophenoxy)azetidine hydrochloric acid salt], at 10 µM the inhibition in test [1] was 11%. In addition, in the test on DOPAC, the “DOPAC cortex ± SEM” value is 191 ± 18** % of control means and the “DOPAC striatum ± SEM” value is on record as 247 ± 13*** % of control means. In test [2], this compound displayed an inhibition at 10 µM of 17%.

For `Fc1cc(F)cc(OC2CNC2)c1` [Example 52C, 3-(3,5-difluorophenoxy)azetidine hydrochloric acid salt], the inhibition at 10 µM in test [1] and in test [2] was 25% throughout.

In test [1], `Fc1cccc(OC2CNC2)c1F` [Example 1A, 3-(2,3-difluorophenoxy)azetidine hydrochloric acid salt] displayed an inhibition at 10 µM of 37% and an IC50 of 79 µM. Further, in the test on DOPAC, the “DOPAC cortex ± SEM” value is given as 300 ± 26*** % of control means and the “DOPAC striatum ± SEM” value is 53 ± 2*** % of control means. In test [2], this compound showed an inhibition at 10 µM of 49% and an IC50 of 21 µM.

Turning to `Fc1cc(F)cc(OC2CNC2)c1.O=C(O)C(O)C(O)C(=O)O` [Example 52B, 3-(3,5-difluorophenoxy)azetidine (+)-tartaric acid salt], in the test with DOPAC, the “DOPAC cortex ± SEM” value is 229 ± 4.6*** % of control means and the “DOPAC striatum ± SEM” value is 72 ± 1.7*** % of control means.

`Fc1cc(F)c(F)c(OC2CNC2)c1` [Example 2, 3-(2,3,5-trifluorophenoxy)azetidine hydrochloric acid salt] displayed an inhibition at 10 µM in test [1] of 25%. Further, in the test on DOPAC, the “DOPAC cortex ± SEM” value is 121 ± 5.6 % of control means and the “DOPAC striatum ± SEM” value is recorded as 96 ± 4 % of control means. Moreover, the inhibition at 10 µM in test [2] worked out at 12%.

In test [1], `Clc1ccc(OC2CNC2)cc1Cl` [Reference Compound, 3-(3,4-dichlorophenoxy)azetidine hydrochloric acid salt, reference compound] yielded an inhibition at 10 µM of 84% and an IC50 of 2.2 µM. Further, in test [1] (setting [3]), the “fold more potent than Example 1A at NET” value came out at 36 fold. Besides, in the test on DOPAC, the “DOPAC cortex ± SEM” value is recorded as 86 ± 5.6 % of control means and the “DOPAC striatum ± SEM” value is recorded as 89 ± 2.5 % of control means. In test [2], this compound had an inhibition at 10 µM of 79% and an IC50 of 3.5 µM. For the same compound, in test [2] (setting [3]), the “fold more potent than Example 1A at DAT” value was determined as 6 fold.

Consider `Fc1ccc(F)c(OC2CNC2)c1F` [Example 20, 3-(2,3,6-trifluorophenoxy)azetidine hydrochloric acid salt], for which the inhibition at 10 µM in test [1] is 10%; in test [2], 25%.
